Results published in patent publication US4386103A, “Dichloroamino acid derivatives useful as potent germicidal and fungicidal agents” (Merck & Co., Inc., priority 1981, dated 1983).

Columns and labels:
Aspergillus fumigatus = assay: Contact fungicidal screen, Aspergillus fumigatus; type: cell-based; conditions: 0.1M NaOAc pH 4.6
Protocol: (§1) The organisms used in the Contact Fungicidal Screen are a dermatophyte, trychophyton mentagrophytes, frequently associated with athlete's foot; a yeast, Candida albican, causative agent of thrush and vaginitis; a phycomycete, Rhizopus oryzae, commonly known as black bread mold; an ascomycete, Aspergillus fumagatis, found in chicken droppings and causing lung infections; and another dermatophyte, Microsporum canis, which causes ringworm. These organisms are maintained as stock cultures at 4° C. on agar […] of the following composition: dextrose 2%, Neopeptone (Difco) 1%, agar 2%. Fluid medium of the same nutrient composition (without agar) was used to test the viability of the organisms after exposure to the fungicide. This medium is also known as Sabouraud's medium. Sabouraud's agar plate cultures of Aspergillus fumigatus, Microsporum canis, and a different culture of Trychophyton mentagrophytes are prepared by planting an inoculum at the center of an agar plate and incubating at 25°-30° C. for seven to ten days. The mycelial mats are removed from the surface of the agar and prepared in the same manner as the Rhizopus culture. The compounds are weighed into heat sterilized 100 ml volumetric flasks and immediately before screening dissolved in 0.1 M NaOAc pH 4.6 buffer (test solutions). The Aspergillus, Candida, Microsporum and Rhizopus species are screened in a slightly different manner. Basically, the procedure for the Contact Germicidal Efficiency Screen is utilized. After the test solutions are made up, 5 ml aliquots are pipetted into heat sterilized 25 ml glass stoppered erlenmeyer flasks. The screen is initiated when 0.5 ml of the 5×10^6 cell (spore) per ml suspension is added to the flask containing 5 ml of the test solution. […] The subculture tubes are incubated at 25°-30° C. for ten days with daily observation for mycelial growth. The earliest subculture time at which no growth is present is considered the endpoint and is recorded as the sterilization time. To insure the viability of the culture, a 0.5 ml aliquot of the 5×10^6 cells (spores) per ml suspension is transferred to 5 ml of the pH 4.6 buffer. A loopful of the inoculated buffer is then subcultured to 7 ml of fluid Sabouraud's medium and incubated at 25°-30° C. for ten days. To insure that the dilution of the test solution into the subculture medium does stop the action, a loopful of the test solution and a loopful of the inoculated buffer are transferred into the same subculture tube. This tube is also incubated at 25°-30° C. for ten days.

Candida albican = assay: Contact fungicidal screen, Candida albican; type: cell-based; conditions: 0.1M NaOAc pH 4.6
Protocol: (§2) The organisms used in the Contact Fungicidal Screen are a dermatophyte, trychophyton mentagrophytes, frequently associated with athlete's foot; a yeast, Candida albican, causative agent of thrush and vaginitis; a phycomycete, Rhizopus oryzae, commonly known as black bread mold; an ascomycete, Aspergillus fumagatis, found in chicken droppings and causing lung infections; and another dermatophyte, Microsporum canis, which causes ringworm. These organisms are maintained as stock cultures at 4° C. on agar slants of the following composition: dextrose 2%, Neopeptone (Difco) 1%, agar 2%. Fluid medium of the same nutrient composition (without agar) was used to test the viability of the organisms after exposure to the fungicide. This medium is also known as Sabouraud's medium.
The Candida albican is grown in Sabouraud's liquid medium at 25°-30° C. for three days. At the end of the incubation period the cell suspension is centrifuged at 200 G and washed with sterile physiological saline (0.85% NaCl). The density of the cell suspension is determined by counting in a hemacytometer. The suspension is stored a 4° C. until it is used, at which time it is diluted with sterile physiological saline to a density of 5×10^6 cells per ml.
(§3) The compounds are weighed into heat sterilized 100 ml volumetric flasks and immediately before screening dissolved in 0.1 M NaOAc pH 4.6 buffer (test solutions).
(§4) The Aspergillus, Candida, Microsporum and Rhizopus species are screened in a slightly different manner. Basically, the procedure for the Contact Germicidal Efficiency Screen is utilized. After the test solutions are made up, 5 ml aliquots are pipetted into heat sterilized 25 ml glass stoppered erlenmeyer flasks. The screen is initiated when 0.5 ml of the 5×10^6 cell (spore) per ml suspension is added to the flask containing 5 ml of the test solution. At intervals of 0.5, 2.5, 5.0, 10.0 and 15.0 minutes, a 4 mm loopful of the inoculated test solution is subcultured into 7 mL of sterile fluid Sabouraud's medium and mixed on a vortex, the high dilution serving to stop the action of the compound. The subculture tubes are incubated at 25°-30° C. for ten days with daily observation for mycelial growth. The earliest subculture time at which no growth is present is considered the endpoint and is recorded as the sterilization time.
(§5) To insure the viability of the culture, a 0.5 ml aliquot of the 5×10^6 cells (spores) per ml suspension is transferred to 5 ml of the pH 4.6 buffer. A loopful of the inoculated buffer is then subcultured to 7 ml of fluid Sabouraud's medium and incubated at 25°-30° C. for ten days. To insure that the dilution of the test solution into the subculture medium does stop the action, a loopful of the test solution and a loopful of the inoculated buffer are transferred into the same subculture tube. This tube is also incubated at 25°-30° C. for ten days.

Microsporum canis = assay: Contact fungicidal screen, Microsporum canis; type: cell-based; conditions: 0.1M NaOAc pH 4.6
Protocol: as §1

Rhizopus oryzae = assay: Contact fungicidal screen, Rhizopus oryzae; type: cell-based; conditions: 0.1M NaOAc pH 4.6
Protocol: as §2
[…]. The mycelial mat is removed from the surface of the agar using a sterile spatula. It is transferred to a heat sterilized glass tissue grinder and macerated with 25 ml of sterile physiological saline. The suspension is then filtered through sterile glass wool. The density of the sporangia spore suspension is determined by counting in a hemacytometer. The suspension is stored at 4° C. until it was used, at which time it was diluted with sterile physiological saline to a density of 5×10^6 spores per ml.
as §3, §4, §5

[1] = test system: Gram-positive and Gram-negative organisms; conditions: cited from earlier work
pseudomonas organisms = conditions: cited from earlier work
[2] = animal tests; cited from earlier work
Gram-negative organisms = conditions: cited from earlier work
[3] = Stability of chloroamino acids in pH 4 acetate buffer at 34° C.; type: physicochemical; conditions: for half-life: read-out: Stability (t1/2) (converted)
Excerpt: The effect of this distance on stability in aqueous medium is illustrated in the following table.

In the case of `CC(C)(CCCCC(=O)O)N(Cl)Cl` [(VI), 6-Dichloroamino-6-methyl-heptanoic acid], the “Sterilization Time” value (Aspergillus fumigatus; 10 PPM) is reported as 15 min, the “Sterilization Time” value (Aspergillus fumigatus; 100 PPM) is reported as 15 min and the “Sterilization Time” value (Aspergillus fumigatus; 1000 PPM) is reported as 5.0 min. For the same molecule, the “Sterilization Time” value (Candida albican; 10 PPM) was 15 min, the “Sterilization Time” value (Candida albican; 100 PPM) was 2.5 min and the “Sterilization Time” value (Candida albican; 1000 PPM) was 0.5 min. The “Sterilization Time” value (Microsporum canis; 10 PPM) was 10.0 min, the “Sterilization Time” value (Microsporum canis; 100 PPM) was 2.5 min and the “Sterilization Time” value (Microsporum canis; 1000 PPM) was 0.5 min. For the same molecule, the “Sterilization Time” value (Rhizopus oryzae; 10 PPM) was 15 min, the “Sterilization Time” value (Rhizopus oryzae; 100 PPM) was 15 min and the “Sterilization Time” value (Rhizopus oryzae; 1000 PPM) was 15 min.
In the case of `[H]/N=C(\N/C(=N/[H])NCCCCCCNC(=N)NC(=N)Nc1ccc(Cl)cc1)Nc1ccc(Cl)cc1` [Chlorhexidine], the “activity against Gram-positive and Gram-negative organisms” value [1] is listed as “generally effective against Gram-positive and Gram-negative oganisms” and the “activity against pseudomonas organisms” value (pseudomonas organisms) is listed as “not effective against pseudomonas organisms”.
In the case of `Oc1c(Cl)cc(Cl)c(Cl)c1Cc1c(O)c(Cl)cc(Cl)c1Cl` [Hexachlorophene], the neurotoxicity [2] is listed as “caused neurotoxicity” and the “activity against Gram-negative organisms” value (Gram-negative organisms) is listed as “ineffective against Gram-negative organisms”.
In the case of `CC(C)(CCC(=O)O)N(Cl)Cl` [Z = CH2 CH2], the half-life [3] is reported as 57 days.
For `CC(C)(CC(=O)O)N(Cl)Cl` [Z = CH2], the half-life [3] was 1.21 days.
With `CC(C)(C(=O)O)N(Cl)Cl` [Z = nothing] the “Stability (in words)” value [3] was “violent decomposition”.
`CC(C)(COC(=O)CCC(=O)O)N(Cl)Cl` [drawing 17] gave a half-life [3] of 300 days.
